Reference: ChEMBL document CHEMBL1152103, “U-87947E, a protein quinolone antibacterial agent incorporating a bicyclo[1.1.1]pent-1-yl (BCP) subunit” (1993)
Values after ≈ are worked out from the molar mass of the structure shown.

Legend:
Type in all cases: functional
[1] = test system: Haemophilus influenzae; test: The compound was tested for its antibacterial activity against Haemophilus influenzae (10 strains)
[2] = test system: Streptococcus pneumoniae; test: The compound was tested for its antibacterial activity against Streptococcus pneumoniae (10 strains), expressed as MIC90
[3] = test system: Bacteroides fragilis; test: The compound was tested for its antibacterial activity against Bacteroides fragilis (12 strains)
[4] = test system: Enterococcus faecalis; test: The compound was tested for its antibacterial activity against Enterococcus faecalis (10 strains)
[5] = test system: Escherichia coli; test: The compound was tested for its antibacterial activity against Escherichia coli (21 strains)
[6] = test system: Pseudomonas aeruginosa; test: The compound was tested for its antibacterial activity against Pseudomonas aeruginosa (20 strains)
[7] = test system: Staphylococcus aureus; test: The compound was tested for its antibacterial activity against Staphylococcus aureus, ciprofloxacin resistant (14 strains)
[8] = test system: Staphylococcus aureus; test: The compound was tested for its antibacterial activity against Staphylococcus aureus (12 strains)
[9] = test system: Streptococcus pyogenes; test: The compound was tested for its antibacterial activity against Streptococcus pyogenes (10 strains)

SMILES | MIC90 [1] | MIC90 [2] | MIC90 [3] | MIC90 [4] | MIC90 [5] | MIC90 [6] | MIC90 [7] | MIC90 [8] | MIC90 [9]
CS(=O)(=O)O.C[C@H]1CN(c2c(F)cc3c(=O)c(C(=O)O)cn(C45CC(C4)C5)c3c2F)C[C@H]1CN | 0.06 µg/mL | 0.125 µg/mL | 1 µg/mL | 0.25 µg/mL | 0.125 µg/mL | 8 µg/mL | 0.5 µg/mL | 0.125 µg/mL | 0.125 µg/mL
O=C(O)c1cn(C2CC2)c2cc(N3CCNCC3)c(F)cc2c1=O [CIPROFLOXACIN] | 0.015 µg/mL (≈ 0.0453 µM) | 1 µg/mL (≈ 3.02 µM) | 8 µg/mL (≈ 24.1 µM) | 2 µg/mL (≈ 6.04 µM) | 0.03 µg/mL (≈ 0.0905 µM) | 2 µg/mL (≈ 6.04 µM) | > 16 µg/mL | 1 µg/mL (≈ 3.02 µM) | 0.5 µg/mL (≈ 1.51 µM)
